Square brackets hold non-standard residues; d marks the D form. Peptide text beside a SMILES is read from it. * marks the point of attachment. NHPhenethyl = c1ccc(CCN*)cc1; NMeM = CN[C@@H](CCSC)C(=O)O; NMeV = CN[C@H](C(=O)O)C(C)C
Legend:
Leishmania donovani = assay: Antileishmanial activity against Leishmania donovani MHOM/ET/67/L82 axenic amastigotes after 72 hrs by alamar blue staining based fluorescence assay; format: functional, organism-based; conditions: MHOM/ET/67/L82, 72 h
Plasmodium falciparum = assay: Antiplasmodial activity against Plasmodium falciparum NF54 erythrocytic stage assessed as reduction in [3H]hypoxanthine incorporation preincubated for 48 hrs followed by [3H]hypoxanthine addition and measured after 24 hrs by liquid scintillation counting method; format: functional, organism-based
L6 = assay: Cytotoxicity against rat L6 cells assessed as reduction in cell viability after 72 hrs by Alamar blue staining-based fluorometric analysis; conditions: L6, 72 h
[1] = tested on: Trypanosoma brucei rhodesiense; assay: Antitrypanosomal activity against Trypanosoma brucei rhodesiense STIB900 bloodstream forms after 72 hrs by Alamar blue staining-based fluorometric analysis; format: functional, organism-based; conditions: STIB900, 72 h
Trypanosoma cruzi = assay: Antiparasitic activity against Trypanosoma cruzi Tulahuen C4 trypomastigotes infected in rat L6 cells after 96 hrs by CPRG/Nonidet reagent based photometric analysis; format: functional, organism-based; conditions: Tulahuen C4, L6, 96 h

Row | Compound | IC50 (Leishmania donovani) | IC50 (Plasmodium falciparum) | IC50 (L6) | IC50 [1] | IC50 (Trypanosoma cruzi)
1 | CSCC[C@@H](C(=O)N[C@H](C(=O)N(C)[C@H](C(=O)N(C)[C@H](C(=O)NCCc1ccccc1)C(C)C)C(C)C)C(C)C)N(C)C(=O)[C@@H](N)C(C)C (H-V[NMeM]V[NMeV][NMeV]-NHPhenethyl) | 18.8 µM | 3.2 µM | 70.8 µM | 7.3 µM | 14.2 µM
2 | CSCC[C@@H](C(=O)N(C)[C@H](C(=O)N(C)[C@H](C(=O)NCCc1ccccc1)C(C)C)C(C)C)N(C)C(=O)[C@@H](N)C(C)C (H-V[NMeM][NMeV][NMeV]-NHPhenethyl) | > 100 µM | 7.9 µM | 75.2 µM | 8.5 µM | 62.9 µM
3 | CSCC[C@@H](C(=O)N(C)[C@H](C(=O)N(C)[C@H](C(=O)N(C)[C@H](C(=O)NCCc1ccccc1)C(C)C)C(C)C)C(C)C)N(C)C(=O)[C@@H](N)C(C)C (H-V[NMeM][NMeV][NMeV][NMeV]-NHPhenethyl) | 92.3 µM | 2.3 µM | 23.9 µM | 2.7 µM | 12.6 µM
4 | CN[C@H](C(=O)N[C@H](C(=O)N(C)[C@@H](CCSC)C(=O)N(C)[C@H](C(=O)N(C)[C@H](C(=O)NCCc1ccccc1)C(C)C)C(C)C)C(C)C)C(C)C (H-[NMeV]V[NMeM][NMeV][NMeV]-NHPhenethyl) | > 100 µM | 4.1 µM | 31.3 µM | 5.7 µM | 25.4 µM
5 | CN[C@H](C(=O)N[C@H](C(=O)N(C)[C@H](C(=O)N(C)[C@@H](CCSC)C(=O)NCCc1ccccc1)C(C)C)C(C)C)C(C)C (H-[NMeV]V[NMeV][NMeM]-NHPhenethyl) | > 100 µM | 10.9 µM | > 100 µM | 12.3 µM | 75 µM
6 | CN[C@H](C(=O)N[C@H](C(=O)N(C)[C@H](C(=O)N(C)[C@H](C(=O)NCCc1ccccc1)C(C)C)C(C)C)C(C)C)C(C)C (H-[NMeV]V[NMeV][NMeV]-NHPhenethyl) | > 100 µM | 5.3 µM | 89.1 µM | 10.5 µM | 69.4 µM
7 | CN[C@H](C(=O)N[C@H](C(=O)N(C)[C@H](C(=O)N(C)[C@H](C(=O)N(C)[C@@H](CCSC)C(=O)NCCc1ccccc1)C(C)C)C(C)C)C(C)C)C(C)C (H-[NMeV]V[NMeV][NMeV][NMeM]-NHPhenethyl) | > 100 µM | 6.6 µM | 71.2 µM | 4.3 µM | 53 µM
8 | CN[C@H](C(=O)N[C@H](C(=O)N(C)[C@H](C(=O)N(C)[C@H](C(=O)N(C)[C@H](C(=O)NCCc1ccccc1)C(C)C)C(C)C)C(C)C)C(C)C)C(C)C (H-[NMeV]V[NMeV][NMeV][NMeV]-NHPhenethyl) | > 100 µM | 4.6 µM | 56.2 µM | 1.4 µM | 26.2 µM
9 | O=C(Cn1ccnc1[N+](=O)[O-])NCc1ccccc1 [BENZNIDAZOLE] | – | – | – | – | 2.8 µM
10 | COc1cc([C@@H]2c3cc4c(cc3[C@H](O)[C@H]3COC(=O)[C@H]23)OCO4)cc(OC)c1OC [PODOFILOX] | – | – | 0.01 µM | – | –
